As usually defined, the IC50 is the concentration needed to halve the response being measured.

Here are results for nine molecules from patent EP4682143A1, “PHARMACEUTICAL COMPOSITION CONTAINING EGFR INHIBITOR, AND PREPARATION METHOD THEREFOR AND USE THEREOF” (Convalife Pharmaceuticals Co., Ltd., priority 2023, dated 2024).

Like-named read-outs stand apart in the source and are kept apart here.

The subject of experiment [1] is Ba/F3-EGFR-G719S cell line. The experiment can be described thus: CellTiter-Glo (CTG) cell proliferation assay (Example A). Format: cell-based. The following applies: 72 hours, highest test concentration 1 µM. The procedure:
Due to its high sensitivity and simple workflow, it is currently a widely used cell viability assay.
Cell viability was assessed by trypan blue exclusion to ensure viability above 90%. • c) Cells were adjusted to the desired density with complete growth medium and seeded into 96-well plates at 3,000 cells per well in 90 µL medium. • d) The seeded 96-well plates were incubated at 37°C under 5% CO2. • e) Ten-fold stock solutions of each compound were prepared, with the highest test concentration of 1 µM. Nine concentrations were generated by four-fold serial dilution. Subsequently, 10 µL of each diluted compound was transferred into the corresponding wells of the 96-well plates, with triplicate wells for each concentration. • f) The compound-treated 96-well plates were incubated for an additional 72 hours at 37°C under 5% CO2, followed by CTG analysis. • g) The CTG reagent was thawed and the cell plates were equilibrated to room temperature for 30 minutes. • h) An equal volume of CTG reagent was added to each well. • i) The plates were shaken on a plate shaker for 5 minutes to induce cell lysis. • j) Plates were incubated at room temperature for 20 minutes to stabilize the luminescent signal. • k) Luminescence was measured and data were collected.
Data were analyzed using GraphPad Prism 7.0 software. Nonlinear sigmoidal regression was applied to fit the dose-response curves, from which IC50 values were calculated.
Cell viability (%) was determined according to the following equation: Cell viability(%) = (Lumcompound−Lummedium control)/(Lumvehicle control−Lummedium control) × 100% [formula]
For orientation: In ATP-based viability assays light output follows the ATP content of the culture.

Experiment [2] relates to Cholangiocarcinoma PDX Model LD1-0060-200791. The experiment can be described thus: Cholangiocarcinoma PDX model in vitro antiproliferation assay (CTG). Format: cell-based. The following applies: for IC50: 144 h; for IC50 / Maximum Inhibition Rate (%) / Minimum Inhibition Rate (%): cultured 6 days, CTG; for Slope: slope of inhibition curve. The procedure: Tumor tissues were surgically excised from the subcutaneous tumors of tumor-bearing mice and immersed in HBSS buffer. Non-tumor and necrotic tissues were removed in a biosafety cabinet, and the tissues were cut into small pieces of 1-3 mm^3. Tumor pieces were digested with collagenase at 37°C for 1-2 hours. Single-cell suspensions were collected through a mesh, and centrifuged at 1200 rpm for 3 minutes to remove the supernatant. […] High-concentration drug stocks were diluted 1000× with BIO-MPM-1 medium to prepare 20× intermediate concentrations. Each well of a 96-well plate received 7.5 µL of the corresponding 20× drug solution or BIO-MPM-1 containing 2% DMSO (final DMSO concentration 0.2%). Then 135 µL of cell suspension was added per well. Cells were cultured continuously for 6 days at 37°C. Afterwards, 50 µL of CTG reagent was added per well. After mixing, 80 µL of the solution was measured in a multifunctional microplate reader for ATP content. Signals from each well were recorded to generate inhibition curves and calculate parameters such as IC50.
Inhibition curves were plotted using Xlfit (IDBS) to determine parameters including maximum inhibition, minimum inhibition, absolute IC50, relative IC50, and slope.
Proliferation rate (fold increase) was calculated as: Proliferation rate = (Vday6Control−Vday6Blank)/(Vday0Control−Vday0Blank) [formula]

`CCOc1cc2ncc(C#N)c(Nc3ccc(OCc4ccccn4)c(Cl)c3)c2cc1NC(=O)/C=C/CN1CC(F)(F)C1` [Compound A0903, (E)-N-(4-((3-chloro-4-(pyridin-2-ylmethoxy)phenyl)amino)-3-cyano-7-ethoxyquinolin-6-yl)-4-(3,3-difluoroazetidin-1-yl)but-2-enamide] returned an IC50 in experiment [1] of 2.06 nM.

In experiment [1], `CCOc1cc2ncc(C#N)c(Nc3ccc(OCc4ccccn4)c(Cl)c3)c2cc1NC(=O)/C=C/CN1CC(N(C)C)C1` [Compound A0901, (E)-N-(4-((3-chloro-4-(pyridin-2-ylmethoxy)phenyl)amino)-3-cyano-7-ethoxyquinolin-6-yl)-4-(3-(dimethylamino)azetidin-1-yl)but-2-enamide] returned a concentration for half-maximal inhibition (IC50) of 16.8 nM.

In experiment [1], `C=C(CN1CC(N(C)C)C1)C(=O)Nc1cc2c(Nc3ccc(OCc4ccccn4)c(Cl)c3)c(C#N)cnc2cc1OCC` [Compound A0905, N-(4-((3-chloro-4-(pyridin-2-ylmethoxy)phenyl)amino)-3-cyano-7-ethoxyquinolin-6-yl)-2-((3-(dimethylamino)azetidin-1-yl)methyl)propenamide] had an IC50 of 69.6 nM.

Molecule “(E)-N-(4-((3-chloro-4-(pyridin-2-ylmethoxy)phenyl)amino)-3-cyano-7-ethoxyquinolin-6-yl)-4-(methanesulfonamido)but-2-enamide [Compound A0904]” yielded an IC50 in experiment [1] of 2.18 nM.

Turning to `C=C(CN1CCC(N(C)C)CC1)C(=O)Nc1cc2c(Nc3ccc(OCc4ccccn4)c(Cl)c3)c(C#N)cnc2cc1OCC` [Compound A0906, N-(4-((3-chloro-4-(pyridin-2-ylmethoxy)phenyl)amino)-3-cyano-7-ethoxyquinolin-6-yl)-2-((4-(dimethylamino)piperidin-1-yl)methyl)propenamide], the IC50 in experiment [1] stood at 152 nM.

For `c1cc(-c2nc(N3CCOCC3)c3oc4ccc(CN5CC6CC5CO6)cc4c3n2)c2cc[nH]c2c1` (stereo not drawn) [CVL237], the IC50 in experiment [2] (read-out: Absolute IC50) came to 3480 nM. The IC50 in experiment [2] (read-out: Relative IC50) amounted to 3410 nM. In experiment [2], the “Maximum Inhibition Rate (%)” value came out at 99.5%, the “Minimum Inhibition Rate (%)” value was -10.0% and the Slope turned out to be 9.51.

For “(E)-N-(4-((3-chloro-4-(pyridin-2-ylmethoxy)phenyl)amino)-3-cyano-7-ethoxyquinolin-6-yl)-4-(3,3-difluoroazetidin-1-yl)but-2-enamide [Compound A0902]”, in experiment [1], the IC50 turned out to be 2.53 nM.

For the molecule `CNCc1ccc(-c2cc3cc(F)cc(C(N)=O)c3o2)cc1` [CVL218], the concentration for half-maximal inhibition (IC50) in experiment [2] (read-out: Absolute IC50) worked out at 5770 nM. The IC50 in experiment [2] (read-out: Relative IC50) worked out at 7080 nM. Moreover, in experiment [2], the “Maximum Inhibition Rate (%)” value was 110.0%, the “Minimum Inhibition Rate (%)” value turned out to be 6.4% and the Slope is listed as 1.57.

As to `CCOc1cc2ncc(C#N)c(Nc3ccc(OCc4ccccn4)c(Cl)c3)c2cc1NC(=O)/C=C/CN(C)C.O=C(O)/C=C\C(=O)O` [Compound A009, (E)-N-(4-(3-chloro-4-(pyridin-2-ylmethoxy)anilino)-3-cyano-7-ethoxyquinolin-6-yl)-4-(dimethylamino)but-2-enamide maleate, reference compound], the IC50 in experiment [2] (read-out: Absolute IC50) was found to be 3310 nM. Further, the IC50 in experiment [2] (read-out: Relative IC50) worked out at 3260 nM. In experiment [2], the “Maximum Inhibition Rate (%)” value is listed as 99.2%, the “Minimum Inhibition Rate (%)” value is listed as -10.0% and the Slope is 13.13.
